Laboratory results published in publication PMC8880268, “Magnolol and Luteolin Inhibition of α-Glucosidase Activity: Kinetics and Type of Interaction Detected by In Vitro and In Silico Studies” (Pharmaceuticals, 2022).
Entries after “also recorded” stand apart in the source; their conditions may differ. Where two headings read alike, the source gives them in different places.

Columns and labels:
[1] = test system: α-glucosidase; details: cited from earlier work; for type of inhibition (inhibition kinetic assays): ref 19; for IC50: studied with 0.5 µM of α-glucosidase ref 19
[2] = target: T1, α-glucosidase (Saccharomyces cerevisiae, UniProt P38158); test: Kinetic analysis of yeast α-glucosidase inhibition (Michaelis–Menten and Lineweaver–Burk plots); assay type: biochemical; details: for type of inhibition: Michaelis–Menten and Lineweaver–Burk plots; for Kcat of α-glucosidase: 0.075 µM α-glucosidase
T1 construct: purchased Merck KGaA, Darmstadt, Germany
T1 sequence (P38158 whole entry): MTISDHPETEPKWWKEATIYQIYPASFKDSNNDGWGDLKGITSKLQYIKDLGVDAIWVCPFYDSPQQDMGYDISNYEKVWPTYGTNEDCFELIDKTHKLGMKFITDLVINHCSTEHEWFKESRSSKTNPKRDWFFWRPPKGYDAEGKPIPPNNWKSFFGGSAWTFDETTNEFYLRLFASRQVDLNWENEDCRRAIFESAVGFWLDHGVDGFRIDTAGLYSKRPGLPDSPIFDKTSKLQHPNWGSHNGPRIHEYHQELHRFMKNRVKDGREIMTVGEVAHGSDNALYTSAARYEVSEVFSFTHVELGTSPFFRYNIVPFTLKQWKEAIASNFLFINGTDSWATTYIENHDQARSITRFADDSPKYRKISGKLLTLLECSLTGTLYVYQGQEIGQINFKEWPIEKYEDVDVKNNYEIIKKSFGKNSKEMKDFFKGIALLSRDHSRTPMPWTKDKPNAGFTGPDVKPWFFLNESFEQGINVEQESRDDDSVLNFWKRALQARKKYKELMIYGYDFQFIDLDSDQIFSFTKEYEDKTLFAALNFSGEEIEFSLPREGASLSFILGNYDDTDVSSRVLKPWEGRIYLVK
Protocol: The type of enzyme inhibition exerted by inhibitors was evaluated from kinetic studies using different substrate concentrations (0.25–2.5 mM pNPG) applying Michaelis–Menten and Lineweaver–Burk plots. Inhibition constants (Ki) were determined by plots of the Y-intercept of the Lineweaver–Burk plot vs. inhibitor concentration.

[3] = target: T1, α-glucosidase; test: Inactivation kinetics, time course of α-glucosidase activity; assay type: biochemical; details: enzyme 0.075 µM, pNPG 2 mM
Protocol: The enzyme and substrate concentrations were 0.075 µM and 2 mM, respectively.

[4] = target: T1, α-glucosidase; test: Synchronous fluorescence spectra; details: pH 6.8, 298 K
Text: The application of this method allows the identification of conformational changes in proteins according to the spectroscopic behavior of the tyrosine and tryptophan residues. Synchronous fluorescence spectra were collected in the emission range of 260–320 nm. The difference between excitation and emission wavelength (Δλ) was established at 15 nm (tyrosine residues) or at 60 nm (tryptophan residues).

[5] = target: T1, α-glucosidase; test: Fluorescence quenching analysis and thermodynamic parameters; assay type: binding; details: for Ksv (Stern–Volmer quenching constant): pH 6.8, α-glucosidase 0.35 µM; for Kd: read-out: Ka (binding constant) (converted); for ΔH° (enthalpy change) / ∆S° (entropy change): 298–310 K; for ΔH° (enthalpy change) / ∆S° (entropy change) / ΔG° (free energy change): Van ’t Hoff equation; for number of binding sites: no temperature stated
Protocol: The interaction of inhibitors with α-glucosidase was studied using the fluorescence quenching method. […] Measurements were made in the emission range of 300–450 nm, with an excitation of 280 nm, after 10 min of stabilization. The fluorescent spectra of α-glucosidase (0.35 µM) and each inhibitor (0–1.0 µM) were carried out at three different temperatures (298, 304, and 310 K) and the bandwidths were set at 5 nm for both emission and excitation slits. For each sample, three fluorescence spectra were acquired, and the blank was subtracted. The compound quenching mechanism was assessed using the Stern–Volmer equation: F0 / F = 1 + Ksv[Q] = 1 + Kq^.τo[Q], where F0 and F are the fluorescence measure in absence and in presence of different concentrations of quencher, respectively; Ksv is the Stern–Volmer quenching constant; Kq is the coefficient of quencher rate coefficient; τ0 is the life time of the excited state; and [Q] is the concentration of the quencher.
Further elaboration of the equilibrium within the free and bound molecules can be achieved through the analysis of the fluorescence emission data utilizing the following equation: log (F0 − F) / F = log Ka + n log [Q], which obtains the binding constant (Ka) and the number of binding sites per protein (n) for the enzyme-inhibitor system.
Thermodynamic spontaneity is an important factor in the study of protein-ligand interaction. A system tends not only toward a lower energy state (enthalpy, ΔH), but also according to a state of disorder (entropy, ΔS). Thermodynamic parameters were obtained according to the Van ’t Hoff equation and the plot of “log Ka vs. 1/T”. The trade-off between enthalpy (ΔH°) and entropy (ΔS°) is used to obtain the standard free energy variation (ΔG°).

[6] = target: T1, α-glucosidase; test: Non-radiation energy transfer (Förster resonance energy transfer) distance; assay type: binding; details: room temperature, pH 6.8, 0.35 µM
Protocol: The distance between magnolol and α-glucosidase was calculated according to the theory of Förster resonance energy transfer. To calculate the distance (r) between the donor and the acceptor, the emission wavelength of α-glucosidase was overlapped with the absorption band of the inhibitor. The fluorescence spectrum and the UV absorption spectrum of the inhibitor were collected in the wavelength range of 300–500 nm, at room temperature, pH 6.8, and at a concentration of 0.35 µM.

[7] = target: T1, α-glucosidase; test: Yeast α-glucosidase inhibitory assay (pNPG substrate, absorbance 405 nm); assay type: biochemical; details: for IC50: 2 mM pNPG; for reversibility of inhibition: plots v vs. [α-glucosidase] at different inhibitor concentrations
Protocol: α-Glucosidase inhibitory activity was determined according to a previous method. Briefly, 0.1 mM PBS (pH 6.8) was used to dissolve α-glucosidase and pNPG. In detail, 80 μL of PBS or 80 μL of test sample were added to 96-well plates. Successively, 20 μL of enzyme (0.025–0.125 µM) were added to each well. Magnolol (10–100 μM) and luteolin (5–50 μM) were prepared in DMSO (<1% v/v). […] Each sample was incubated with α-glucosidase for 10 min at 37 °C. The reaction started by adding 200 μL of pNPG (2 mM). The absorbance values were detected at 405 nm for 60 min, using a PerkinElmer Victor Nivo microplate spectrophotometer (Waltham, MA, USA). The α-glucosidase activity in the absence of inhibitors was defined as 100%. The half-maximal inhibitory concentration (IC50) was estimated by plot of relative enzymatic activity vs. inhibitor concentration.

## O=C(OC1C(O)C(CO)OC(Oc2c(-c3ccc(O)c(O)c3)oc3cc(O)cc(O)c3c2=O)C1O)c1cc(O)c(O)c(O)c1 (stereo not shown) [compound 3]
[1]
  type of inhibition (inhibition kinetic assays): non-competitive
  IC50: 0.97 µM

## O=c1c(O)c(-c2ccc(O)c(O)c2)oc2cc(O)cc(O)c12 [compound 2, quercetin]
[1]
  type of inhibition (inhibition kinetic assays): non-competitive inhibitors

## C=CCc1ccc(O)c(-c2cc(CC=C)ccc2O)c1 [Magnolol, 5,5′-diallyl-biphenyl-2,2′-diol]
[2]
  type of inhibition: mixed-type antagonism
[2]; listed as magnolol
  type of inhibition: mixed-type inhibition; also recorded: mixed-type inhibitor; also recorded: reversible mixed-type interaction
[2]; inhibitor 10 µM
  Kcat of α-glucosidase: 3.59 ± 0.17 s⁻¹
[2]; inhibitor 10 µM, converted using the Lambert–Beer relationship
  Vmax of α-glucosidase: 16.2 ± 0.80 µM/min
[2]; inhibitor 25 µM
  Kcat of α-glucosidase: 3.29 ± 0.15 s⁻¹
[2]; inhibitor 25 µM, converted using the Lambert–Beer relationship
  Vmax of α-glucosidase: 14.8 ± 0.70 µM/min
[2]; inhibitor 50 µM
  Kcat of α-glucosidase: 2.86 ± 0.13 s⁻¹
[2]; inhibitor 50 µM, converted using the Lambert–Beer relationship
  Vmax of α-glucosidase: 12.9 ± 0.60 µM/min
[2]; inhibitor 100 µM
  Kcat of α-glucosidase: 2.22 ± 0.29 s⁻¹
[2]; inhibitor 100 µM, converted using the Lambert–Beer relationship
  Vmax of α-glucosidase: 10.0 ± 1.30 µM/min
[3]; inhibitor 10 µM
  Inactivation rate constant K: 2.78 ± 0.05 10^−4 s^−1
[3]; inhibitor 25 µM
  Inactivation rate constant K: 2.81 ± 0.03 10^−4 s^−1
[3]; inhibitor 50 µM
  Inactivation rate constant K: 2.81 ± 0.01 10^−4 s^−1
[3]; inhibitor 100 µM
  Inactivation rate constant K: 2.85 ± 0.08 10^−4 s^−1
[4]; ∆λ = 15 nm (tyrosine residues)
  shift of synchronous fluorescence maximum: red shift from 286 to 290
[4]; ∆λ = 60 nm (tryptophan residues)
  shift of synchronous fluorescence maximum: no modification
[5]; 298 K
  Kq (bimolecular quenching constant): 3.90 ± 0.007 10^13 M^−1 s^−1
  n (number of binding sites): 0.39
  Ksv (Stern–Volmer quenching constant): 3.89 ± 0.01 10^5 M^−1
  Kd: 3.37 µM
[5]
  ΔH° (enthalpy change): 9.376 kcal/mol
  ∆S° (entropy change): 121.83 J mol^−1K^−1
  number of binding sites: ~0.6
[5]; 304 K
  Kq (bimolecular quenching constant): 4.22 ± 0.011 10^13 M^−1 s^−1
  n (number of binding sites): 0.42
  ΔG° (free energy change): -0.523 kcal/mol
  Ksv (Stern–Volmer quenching constant): 4.22 ± 0.01 10^5 M^−1
  Kd: 2.2 µM
[5]; 310 K
  Kq (bimolecular quenching constant): 5.30 ± 0.022 10^13 M^−1 s^−1
  n (number of binding sites): 0.65
  ΔG° (free energy change): -0.349 kcal/mol
  Ksv (Stern–Volmer quenching constant): 5.30 ± 0.02 10^5 M^−1
  Kd: 1.82 µM
[5]; based on Ksv and Kq values
  fluorescence quenching mechanism: static-dynamic quenching process
[6]
  calculated distance between inhibitor and α-glucosidase: 2.06 nm
[7]; IC50, α-glucosidase 0.025 × 10^−6 M
  IC50: 28.3 ± 10.7 µM
[7]; IC50, α-glucosidase 0.05 × 10^−6 M
  IC50: 28.5 ± 11 µM
[7]; IC50, α-glucosidase 0.075 × 10^−6 M
  IC50: 32.6 ± 10.5 µM
[7]; IC50, α-glucosidase 0.125 × 10^−6 M
  IC50: 35.5 ± 10.2 µM
[7]
  reversibility of inhibition: reversible inhibition
[7]; −Log IC50, α-glucosidase 0.05 × 10^−6 M
  IC50: 28.2 µM

## O=C(OC[C@@H]1O[C@@H](Oc2c(-c3ccc(O)c(O)c3)oc3cc(O)cc(O)c3c2=O)[C@@H](O)[C@H](O)[C@H]1O)c1cc(O)c(O)c(O)c1 [compound 5]
[1]
  type of inhibition (inhibition kinetic assays): competitive inhibitor
  IC50: 27.8 µM

## O=C(OC[C@@H]1O[C@@H](Oc2c(-c3ccc(O)c(O)c3)oc3cc(O)cc(O)c3c2=O)[C@@H](O)[C@H](O)[C@@H]1O)c1cc(O)c(O)c(O)c1 [compound 4]
[1]
  type of inhibition (inhibition kinetic assays): non-competitive inhibitor
  IC50: 1.35 µM

## C[C@H]1O[C@H](O[C@H]2[C@H](O)[C@@H](O)[C@@H](O[C@H]3[C@H](O)[C@@H](O)C(O)O[C@@H]3CO)O[C@@H]2CO)[C@H](O)[C@@H](O)[C@@H]1N[C@H]1C=C(CO)[C@@H](O)[C@H](O)[C@H]1O (stereo partly shown) [Acarbose, reference compound]
[2]
  type of inhibition: competitive inhibitor
[2]; inhibitor 200 µM
  Kcat of α-glucosidase: 2.83 ± 0.33 s⁻¹
[2]; inhibitor 200 µM, converted using the Lambert–Beer relationship
  Vmax of α-glucosidase: 12.7 ± 1.50 µM/min
[2]; inhibitor 400 µM
  Kcat of α-glucosidase: 2.87 ± 0.39 s⁻¹
[2]; inhibitor 400 µM, converted using the Lambert–Beer relationship
  Vmax of α-glucosidase: 12.9 ± 1.70 µM/min
[2]; inhibitor 800 µM
  Kcat of α-glucosidase: 2.77 ± 0.44 s⁻¹
[2]; inhibitor 800 µM, converted using the Lambert–Beer relationship
  Vmax of α-glucosidase: 12.4 ± 2.00 µM/min
[2]; inhibitor 1600 µM
  Vmax of α-glucosidase: 0.120 ± 0.016 ΔΟD/min
  Kcat of α-glucosidase: 2.66 ± 0.36 s⁻¹
[2]; inhibitor 1600 µM, converted using the Lambert–Beer relationship
  Vmax of α-glucosidase: 12.0 ± 1.60 µM/min
[2]; inhibitor 3200 µM
  Kcat of α-glucosidase: 2.79 ± 0.67 s⁻¹
[2]; inhibitor 3200 µM, converted using the Lambert–Beer relationship
  Vmax of α-glucosidase: 12.5 ± 3.00 µM/min
[2]; inhibitor 4000 µM
  Kcat of α-glucosidase: 3.12 ± 1.04 s⁻¹
[2]; inhibitor 4000 µM, converted using the Lambert–Beer relationship
  Vmax of α-glucosidase: 14.1 ± 4.70 µM/min
[3]; inhibitor 200 µM
  Inactivation rate constant K: 2.76 ± 0.07 10^−4 s^−1
[3]; inhibitor 400 µM
  Inactivation rate constant K: 2.81 ± 0.07 10^−4 s^−1
[3]; inhibitor 800 µM
  Inactivation rate constant K: 2.83 ± 0.05 10^−4 s^−1
[3]; inhibitor 1600 µM
  Inactivation rate constant K: 2.84 ± 0.03 10^−4 s^−1
[3]; inhibitor 3200 µM
  Inactivation rate constant K: 2.85 ± 0.01 10^−4 s^−1
[3]; inhibitor 4000 µM
  Inactivation rate constant K: 2.85 ± 0.09 10^−4 s^−1
[5]; 298 K
  Kq (bimolecular quenching constant): 3.75 ± 0.041 10^13 M^−1 s^−1
  n (number of binding sites): 1.77
  ΔG° (free energy change): 0.621 kcal/mol
  Ksv (Stern–Volmer quenching constant): 3.75 ± 0.04 10^5 M^−1
[5]
  ΔH° (enthalpy change): -10.88 kcal/mol
  ∆S° (entropy change): −161.47 J mol^−1K^−1
  number of binding sites: approximately 1
[5]; 304 K
  Kq (bimolecular quenching constant): 1.89 ± 0.014 10^13 M^−1 s^−1
  n (number of binding sites): 1.38
  ΔG° (free energy change): 0.853 kcal/mol
  Ksv (Stern–Volmer quenching constant): 1.89 ± 0.01 10^5 M^−1
[5]; 310 K
  Kq (bimolecular quenching constant): 1.80 ± 0.020 10^13 M^−1 s^−1
  n (number of binding sites): 1.36
  ΔG° (free energy change): 1.09 kcal/mol
  Ksv (Stern–Volmer quenching constant): 1.80 ± 0.02 10^5 M^−1
[7]
  reversibility of inhibition: reversible inhibition

## O=c1c(O)c(-c2ccc(O)cc2)oc2cc(O)cc(O)c12 [compound 1, kaempferol]
[1]
  type of inhibition (inhibition kinetic assays): non-competitive inhibitors
